Data reported in patent US20110282056A1, “PROTEIN KINASE INHIBITORS AND USE THEREOF” (priority 2008, published 2011).

Columns and labels:
Type in all cases: biochemical
[1] = target: T1, VEGFR2 (Homo sapiens, UniProt P35968); assay: VEGFR2 enzyme activity assay (Caliper LC3000 mobility shift); conditions: 160 uM ATP (Km), 1 nM VEGFR2, 90 minutes at RT
T1 construct: purchased BPS Bioscience; San Diego, Calif; 40301
Experimental: (§1) Enzyme activity for VEGFR3, VEGFR2 and Flt3 were measured on the Caliper Life Sciences LC3000 (Hopkinton, Mass.). The system utilizes the principle of electroosmotic flow to separate and quantify the amount of phosphorylated-Fluorescein-labelled-peptide (product) from unphosphorylated-Fluorescein-labelled peptide (substrate). The amount of product and substrate are determined by measuring the peak heights from the electropherogram. The enzyme activity is then quantified by dividing the amount of product by the sum of the product and substrate. The inhibitory activity of a sample is measured by comparing the enzyme activity in the presence of sample versus the enzyme activity in the presence of dimethylsufoxide (DMSO). Specific assay conditions for each enzyme are listed below:
VEGFR2 assay: The peptide substrate at 1 uM (5-FL-EEPLYWSFPAKKK-CONH2; synthesized at Tufts University, Boston, Mass.) was incubated with 160 uM of ATP, corresponding to the Michaelis-Menten (Km) constant of the enzyme/substrate reaction, and 1 nM of VEGFR2 (BPS Bioscience; San Diego, Calif.; Cat. No. 40301) for 90 minutes at RT. After 90 minutes, the reaction was stopped by the addition of 10 mM EDTA. The substrate and product were then separated on the LC3000.

[2] = target: T2, Flt3 (Homo sapiens, UniProt P36888); assay: Flt3 enzyme activity assay (Caliper LC3000 mobility shift); conditions: 350 uM ATP (Km), 3 nM Flt3, 90 minutes at RT
T2 construct: purchased BPS Bioscience; San Diego, Calif; 40225
T2 sequence (P36888 27-993): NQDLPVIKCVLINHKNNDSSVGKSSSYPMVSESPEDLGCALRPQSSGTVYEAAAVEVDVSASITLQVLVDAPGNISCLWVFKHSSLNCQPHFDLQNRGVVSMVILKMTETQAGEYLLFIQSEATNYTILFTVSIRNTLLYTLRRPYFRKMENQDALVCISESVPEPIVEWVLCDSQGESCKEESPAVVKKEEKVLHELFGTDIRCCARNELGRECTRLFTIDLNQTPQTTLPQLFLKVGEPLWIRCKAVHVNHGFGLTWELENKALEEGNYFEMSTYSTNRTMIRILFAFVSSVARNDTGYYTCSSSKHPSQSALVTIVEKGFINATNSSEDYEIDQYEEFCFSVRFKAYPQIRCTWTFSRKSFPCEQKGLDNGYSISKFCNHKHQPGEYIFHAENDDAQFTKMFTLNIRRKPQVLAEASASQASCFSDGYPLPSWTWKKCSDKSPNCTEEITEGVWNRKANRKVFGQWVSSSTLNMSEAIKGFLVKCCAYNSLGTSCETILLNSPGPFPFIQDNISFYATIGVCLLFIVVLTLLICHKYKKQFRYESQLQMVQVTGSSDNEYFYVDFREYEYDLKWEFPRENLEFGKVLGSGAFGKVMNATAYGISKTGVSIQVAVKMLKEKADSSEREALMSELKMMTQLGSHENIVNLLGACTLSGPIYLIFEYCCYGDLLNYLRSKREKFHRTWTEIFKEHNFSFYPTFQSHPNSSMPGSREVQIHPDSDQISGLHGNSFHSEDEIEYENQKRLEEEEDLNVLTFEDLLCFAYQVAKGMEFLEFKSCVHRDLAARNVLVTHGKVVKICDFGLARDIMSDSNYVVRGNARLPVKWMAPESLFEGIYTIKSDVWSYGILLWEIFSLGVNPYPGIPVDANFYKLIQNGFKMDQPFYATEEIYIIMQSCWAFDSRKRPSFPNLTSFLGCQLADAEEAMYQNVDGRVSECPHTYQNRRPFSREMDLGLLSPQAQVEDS
Experimental: as §1
Flt3 assay: The peptide substrate at 1 uM (FITC-AHA-UEAIYAAPFAKKK-CONH2; synthesized at Tufts University, Boston, Mass.) was incubated with 350 uM of ATP, corresponding to the Michaelis-Menten (Km) constant of the enzyme/substrate reaction, and 3 nM of Flt3 (BPS Bioscience; San Diego, Calif.; Cat. No. 40225) for 90 minutes at RT. After 90 minutes, the reaction was stopped by the addition of 10 mM EDTA. The substrate and product were then separated on the LC3000.

[3] = target: T3, VEGFR3 (Homo sapiens, UniProt P35916); assay: VEGFR3 enzyme activity assay (Caliper LC3000 mobility shift); conditions: 400 uM ATP (Km), 0.4 nM VEGFR3, 90 minutes at RT
T3 construct: purchased Millpore Corp. (Millipore) 14-681
T3 sequence (P35916 25-1363): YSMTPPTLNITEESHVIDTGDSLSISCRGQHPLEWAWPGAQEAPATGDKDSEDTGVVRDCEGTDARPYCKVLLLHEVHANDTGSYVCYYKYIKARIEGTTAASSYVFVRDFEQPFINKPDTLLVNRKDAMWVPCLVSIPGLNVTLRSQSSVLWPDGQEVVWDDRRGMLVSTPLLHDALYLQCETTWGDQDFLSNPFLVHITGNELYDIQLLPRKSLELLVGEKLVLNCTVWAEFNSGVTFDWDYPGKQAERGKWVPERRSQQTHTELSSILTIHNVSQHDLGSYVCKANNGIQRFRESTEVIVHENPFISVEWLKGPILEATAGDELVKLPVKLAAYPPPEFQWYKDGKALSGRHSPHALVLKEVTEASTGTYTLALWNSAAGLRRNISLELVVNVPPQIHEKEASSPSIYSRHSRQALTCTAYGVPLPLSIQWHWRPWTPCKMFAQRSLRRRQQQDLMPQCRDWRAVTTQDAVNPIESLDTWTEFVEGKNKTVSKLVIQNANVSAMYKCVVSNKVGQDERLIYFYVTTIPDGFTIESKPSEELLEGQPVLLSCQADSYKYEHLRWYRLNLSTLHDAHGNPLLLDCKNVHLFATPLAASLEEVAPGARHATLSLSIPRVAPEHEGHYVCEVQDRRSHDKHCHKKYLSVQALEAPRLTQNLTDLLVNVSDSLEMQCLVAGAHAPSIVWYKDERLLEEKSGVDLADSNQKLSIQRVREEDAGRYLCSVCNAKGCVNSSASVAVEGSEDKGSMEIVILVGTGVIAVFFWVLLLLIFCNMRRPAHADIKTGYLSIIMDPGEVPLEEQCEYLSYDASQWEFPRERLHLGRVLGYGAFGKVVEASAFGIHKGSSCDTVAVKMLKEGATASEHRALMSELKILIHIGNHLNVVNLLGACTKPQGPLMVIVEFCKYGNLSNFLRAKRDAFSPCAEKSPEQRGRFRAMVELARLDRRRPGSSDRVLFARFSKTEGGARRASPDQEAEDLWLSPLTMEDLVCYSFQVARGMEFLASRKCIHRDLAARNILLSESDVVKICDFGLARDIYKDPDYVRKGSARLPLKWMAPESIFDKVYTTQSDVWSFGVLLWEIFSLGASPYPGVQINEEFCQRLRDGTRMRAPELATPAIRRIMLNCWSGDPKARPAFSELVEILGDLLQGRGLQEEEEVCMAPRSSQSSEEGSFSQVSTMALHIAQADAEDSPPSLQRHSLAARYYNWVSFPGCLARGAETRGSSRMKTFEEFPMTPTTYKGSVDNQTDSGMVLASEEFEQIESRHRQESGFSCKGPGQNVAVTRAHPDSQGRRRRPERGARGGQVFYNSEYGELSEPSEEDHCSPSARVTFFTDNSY
Experimental: as §1
VEGFR3 assay: The peptide substrate at 1 uM (FITC-KKKKEEIYFFF-CONH2; synthesized at Tufts University, Boston, Mass.) was incubated with 400 uM of ATP, corresponding to the Michaelis-Menten (Km) constant of the enzyme/substrate reaction, and 0.4 nM of VEGFR3 (Millpore Corp., Cat. No. 14-681) for 90 minutes at RT. After 90 minutes, the reaction was stopped by the addition of 10 mM EDTA. The substrate and product were then separated on the LC3000.

Measured: IC50

T1 sequence (P35968 20-1356): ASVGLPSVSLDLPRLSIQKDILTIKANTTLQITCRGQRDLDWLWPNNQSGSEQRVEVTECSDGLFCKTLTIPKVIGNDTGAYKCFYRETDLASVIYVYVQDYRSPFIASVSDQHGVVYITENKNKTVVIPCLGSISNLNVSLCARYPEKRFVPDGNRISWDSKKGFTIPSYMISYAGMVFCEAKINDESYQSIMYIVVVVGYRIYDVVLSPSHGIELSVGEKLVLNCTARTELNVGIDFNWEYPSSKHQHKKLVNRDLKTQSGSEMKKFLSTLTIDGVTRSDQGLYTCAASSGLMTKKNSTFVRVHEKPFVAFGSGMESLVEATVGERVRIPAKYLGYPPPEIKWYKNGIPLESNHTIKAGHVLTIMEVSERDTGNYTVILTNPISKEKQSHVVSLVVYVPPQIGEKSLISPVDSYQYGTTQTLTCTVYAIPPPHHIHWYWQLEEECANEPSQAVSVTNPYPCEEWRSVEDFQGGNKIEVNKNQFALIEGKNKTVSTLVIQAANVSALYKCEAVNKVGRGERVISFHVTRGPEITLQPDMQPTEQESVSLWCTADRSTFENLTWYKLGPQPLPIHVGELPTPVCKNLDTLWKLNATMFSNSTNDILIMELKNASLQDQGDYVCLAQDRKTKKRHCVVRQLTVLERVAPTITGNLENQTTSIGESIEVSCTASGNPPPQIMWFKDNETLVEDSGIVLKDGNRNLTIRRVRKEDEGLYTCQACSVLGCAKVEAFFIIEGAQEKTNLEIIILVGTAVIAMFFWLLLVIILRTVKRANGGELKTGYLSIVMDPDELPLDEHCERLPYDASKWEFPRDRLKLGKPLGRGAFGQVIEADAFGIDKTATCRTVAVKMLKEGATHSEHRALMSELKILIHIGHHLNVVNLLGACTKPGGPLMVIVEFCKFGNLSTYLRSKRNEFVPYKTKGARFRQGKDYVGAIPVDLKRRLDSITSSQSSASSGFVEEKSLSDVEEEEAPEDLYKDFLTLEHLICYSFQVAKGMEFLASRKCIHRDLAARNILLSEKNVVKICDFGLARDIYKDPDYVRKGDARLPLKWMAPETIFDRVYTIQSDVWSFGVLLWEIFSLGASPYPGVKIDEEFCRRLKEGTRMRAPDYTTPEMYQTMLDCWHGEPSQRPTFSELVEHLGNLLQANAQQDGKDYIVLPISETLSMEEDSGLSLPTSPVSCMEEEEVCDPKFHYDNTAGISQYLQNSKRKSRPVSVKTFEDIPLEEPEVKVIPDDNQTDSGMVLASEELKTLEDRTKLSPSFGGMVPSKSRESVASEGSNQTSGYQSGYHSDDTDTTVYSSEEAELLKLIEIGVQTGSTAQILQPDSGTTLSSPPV

Cc1cccc(C)c1C#Cc1ccnc2[nH]ccc12 [compound 117]
> 1000 nM: all assays above

NCc1ccccc1C#Cc1ccnc2[nH]ccc12 [compound 118]
> 1000 nM: all assays above

C(#Cc1ccnc2[nH]ccc12)c1ccc(-c2cnco2)cc1 [compound 119]
> 1000 nM: all assays above

FC(F)(F)Oc1ccc(C#Cc2ccnc3[nH]ccc23)cc1 [compound 120]
> 1000 nM: all assays above

O=C(Cc1ccccc1C#Cc1ccnc2[nH]ccc12)N1CCC(F)(F)CC1 [compound 121]
> 1000 nM: all assays above

COC(=O)c1ccc(C#Cc2ccnc3[nH]ccc23)cc1OC [compound 122]
> 1000 nM: all assays above

FC(F)(F)Oc1cccc(C#Cc2ccnc3[nH]ccc23)c1 [compound 123]
> 1000 nM: all assays above

CN(C)c1ccc(C#Cc2ccnc3[nH]ccc23)cc1 [compound 124]
> 1000 nM: all assays above

CN(C)c1ccc(C#Cc2ncnc3sc4c(c23)CCCC4)cc1 [compound 125]
> 1000 nM: all assays above

C(#Cc1ccnc2[nH]ccc12)c1ccc(-c2cccs2)cc1 [compound 126]
> 1000 nM: all assays above

C(#Cc1ccnc2[nH]ccc12)c1ccccc1-c1ccccc1 [compound 127]
> 1000 nM: all assays above

C(#Cc1ccnc2[nH]ccc12)c1ccc(N2CCOCC2)cc1 [compound 128]
> 1000 nM: all assays above

Nc1cc(C#Cc2ccccc2CNC(=O)C(F)(F)F)ccn1 [compound 129]
> 1000 nM: all assays above

COC(=O)c1ccc(C#Cc2ccnc3[nH]ccc23)cc1 [compound 130]
> 1000 nM: all assays above

C(#Cc1ccnc2[nH]ccc12)c1ccc(-c2nnc(-c3ccccc3)o2)cc1 [compound 131]
> 1000 nM: all assays above

COc1ccc(C#Cc2ccnc(NC(=O)OC(C)(C)C)c2)cc1 [compound 132]
> 1000 nM: all assays above

C(#Cc1ccnc2[nH]ccc12)c1ccc(-c2ccccc2)cc1 [compound 133]
> 1000 nM: all assays above

O=C(c1ccc(C#Cc2ccnc3[nH]ccc23)cc1)C1CC1 [compound 134]
> 1000 nM: all assays above

FC(F)(F)c1ccc(C#Cc2ccnc3[nH]ccc23)cc1 [compound 135]
> 1000 nM: all assays above

C(#Cc1ccnc2[nH]ccc12)c1ccc(-c2csnn2)cc1 [compound 136]
> 1000 nM: all assays above

Nc1ccccc1C#Cc1cnc2[nH]ccc2c1 [compound 137]
> 1000 nM: all assays above

COc1ccc(C#Cc2cnc3[nH]ccc3c2)cc1 [compound 138]
> 1000 nM: all assays above

COc1ccc(NC(=O)Cc2ccccc2C#Cc2ccnc3[nH]ccc23)cc1 [compound 139]
> 1000 nM: all assays above
